≈ marks a conversion by molar mass, not a printed value. Calls of active or inactive are those of the source. The calls are words filed in the database; no cut-off is given here.
Assays:
Assay type in all cases: functional
Staphylococcus aureus [1] = assay: Antimicrobial activity against Methicillin susceptible Staphylococcus aureus 213/7 by twofold dilution technique
Staphylococcus aureus [2] = assay: Antimicrobial activity against Methicillin susceptible Staphylococcus aureus 237/7 by twofold dilution technique
Staphylococcus aureus [3] = assay: Antimicrobial activity against Methicillin susceptible Staphylococcus aureus 238/7 by twofold dilution technique
Staphylococcus aureus [4] = assay: Antimicrobial activity against Methicillin susceptible Staphylococcus aureus 239/7 by twofold dilution technique
Staphylococcus aureus [5] = assay: Antimicrobial activity against Methicillin susceptible Staphylococcus aureus 242/7 by twofold dilution technique
Staphylococcus aureus [6] = assay: Antimicrobial activity against Methicillin susceptible Staphylococcus aureus 243/7 by twofold dilution technique
Staphylococcus aureus [7] = assay: Antimicrobial activity against methicillin-resistant Staphylococcus aureus 140/6 by twofold dilution technique
Staphylococcus aureus [8] = assay: Antimicrobial activity against methicillin-resistant Staphylococcus aureus 141/6 by twofold dilution technique
Staphylococcus aureus [9] = assay: Antimicrobial activity against methicillin-resistant Staphylococcus aureus 143/6 by twofold dilution technique
Staphylococcus aureus [10] = assay: Antimicrobial activity against methicillin-resistant Staphylococcus aureus 144/6 by twofold dilution technique
Staphylococcus aureus [11] = assay: Antimicrobial activity against methicillin-resistant Staphylococcus aureus 146/6 by twofold dilution technique
Staphylococcus aureus [12] = assay: Antimicrobial activity against methicillin-resistant Staphylococcus aureus 200/7 by twofold dilution technique
Staphylococcus aureus [13] = assay: Antimicrobial activity against methicillin-resistant Staphylococcus aureus 217/7 by twofold dilution technique
Staphylococcus aureus [14] = assay: Antimicrobial activity against methicillin-resistant Staphylococcus aureus 218/7 by twofold dilution technique
Staphylococcus aureus [15] = assay: Antimicrobial activity against methicillin-resistant Staphylococcus aureus 236/7 by twofold dilution technique
Staphylococcus aureus [16] = assay: Antimicrobial activity against Staphylococcus aureus NCTC 4163 at 400 ug after 18 hrs by disk diffusion method; conditions: NCTC 4163, 18 h, read-out: DIZ
[17] = tested on: Staphylococcus epidermidis; assay: Antimicrobial activity against Staphylococcus epidermidis ATCC 12228 at 400 ug after 18 hrs by disk diffusion method; conditions: ATCC 12228, 18 h, read-out: DIZ
Bacillus subtilis [18] = assay: Antimicrobial activity against Bacillus subtilis ATCC 6633 at 400 ug after 18 hrs by disk diffusion method; conditions: ATCC 6633, 18 h, read-out: DIZ
Bacillus cereus [19] = assay: Antimicrobial activity against Bacillus cereus ATCC 11778 at 400 ug after 18 hrs by disk diffusion method; conditions: ATCC 11778, 18 h, read-out: DIZ
Enterococcus hirae [20] = assay: Antimicrobial activity against Enterococcus hirae ATCC 10541 at 400 ug after 18 hrs by disk diffusion method
Micrococcus luteus [21] = assay: Antimicrobial activity against Micrococcus luteus ATCC 9341 at 400 ug after 18 hrs by disk diffusion method
Micrococcus luteus [22] = assay: Antimicrobial activity against Micrococcus luteus ATCC 10240 at 400 ug after 18 hrs by disk diffusion method; conditions: ATCC 10240, 18 h, read-out: DIZ
Staphylococcus aureus [23] = assay: Antimicrobial activity against Staphylococcus aureus ATCC 25923 at 400 ug after 18 hrs by disk diffusion method; conditions: ATCC 25923, 18 h, read-out: DIZ
Staphylococcus aureus [24] = assay: Antimicrobial activity against Staphylococcus aureus ATCC 6538 at 400 ug after 18 hrs by disk diffusion method; conditions: ATCC 6538, 18 h, read-out: DIZ
Staphylococcus aureus [25] = assay: Antimicrobial activity against Staphylococcus aureus ATCC 29213 at 400 ug after 18 hrs by disk diffusion method; conditions: ATCC 29213, 18 h, read-out: DIZ
Staphylococcus aureus [26] = assay: Antimicrobial activity against Staphylococcus aureus NCTC 4163 after 18 hrs by twofold dilution technique; conditions: NCTC 4163, 18 h
Staphylococcus aureus [27] = assay: Antimicrobial activity against Staphylococcus aureus ATCC 25923 after 18 hrs by twofold dilution technique; conditions: ATCC 25923, 18 h
Staphylococcus aureus [28] = assay: Antimicrobial activity against Staphylococcus aureus ATCC 6538 after 18 hrs by twofold dilution technique; conditions: ATCC 6538, 18 h
Staphylococcus aureus [29] = assay: Antimicrobial activity against Staphylococcus aureus ATCC 29213 after 18 hrs by twofold dilution technique; conditions: ATCC 29213, 18 h
[30] = tested on: Staphylococcus epidermidis; assay: Antimicrobial activity against Staphylococcus epidermidis ATCC 12228 by twofold dilution technique
Bacillus subtilis [31] = assay: Antimicrobial activity against Bacillus subtilis ATCC 6633 after 18 hrs by twofold dilution technique; conditions: ATCC 6633, 18 h
Bacillus cereus [32] = assay: Antimicrobial activity against Bacillus cereus ATCC 11778 after 18 hrs by twofold dilution technique; conditions: ATCC 11778, 18 h
Enterococcus hirae [33] = assay: Antimicrobial activity against Enterococcus hirae ATCC 10541 after 18 hrs by twofold dilution technique; conditions: ATCC 10541, 18 h
Micrococcus luteus [34] = assay: Antimicrobial activity against Micrococcus luteus ATCC 9341 after 18 hrs by twofold dilution technique; conditions: ATCC 9341, 18 h
Micrococcus luteus [35] = assay: Antimicrobial activity against Micrococcus luteus ATCC 10240 by twofold dilution technique
Staphylococcus aureus [36] = assay: Antimicrobial activity against methicillin-resistant Staphylococcus aureus 136/6 by twofold dilution technique
Staphylococcus aureus [37] = assay: Antimicrobial activity against Methicillin susceptible Staphylococcus aureus 206/7 by twofold dilution technique
Staphylococcus aureus [38] = assay: Antimicrobial activity against Methicillin susceptible Staphylococcus aureus 207/7 by twofold dilution technique
Staphylococcus aureus [39] = assay: Antimicrobial activity against Methicillin susceptible Staphylococcus aureus 208/7 by twofold dilution technique
Staphylococcus aureus [40] = assay: Antimicrobial activity against Methicillin susceptible Staphylococcus aureus 212/7 by twofold dilution technique

Compound | MIC (Staphylococcus aureus [1]) [µg/mL] | MIC (Staphylococcus aureus [2]) [µg/mL] | MIC (Staphylococcus aureus [3]) [µg/mL] | MIC (Staphylococcus aureus [4]) [µg/mL] | MIC (Staphylococcus aureus [5]) [µg/mL] | MIC (Staphylococcus aureus [6]) [µg/mL] | MIC (Staphylococcus aureus [7]) [µg/mL] | MIC (Staphylococcus aureus [8]) [µg/mL] | MIC (Staphylococcus aureus [9]) [µg/mL] | MIC (Staphylococcus aureus [10]) [µg/mL] | MIC (Staphylococcus aureus [11]) [µg/mL] | MIC (Staphylococcus aureus [12]) [µg/mL] | MIC (Staphylococcus aureus [13]) [µg/mL] | MIC (Staphylococcus aureus [14]) [µg/mL] | MIC (Staphylococcus aureus [15]) [µg/mL] | zone of inhibition at 400 µg/disc [17] [mm] | zone of inhibition at 400 µg/disc (Bacillus subtilis [18]) [mm] | zone of inhibition at 400 µg/disc (Bacillus cereus [19]) [mm] | diameter of the inhibition zone (DIZ) (Enterococcus hirae [20]) | diameter of the inhibition zone (DIZ) (Micrococcus luteus [21]) | also measured
COCCOCCN/N=C/c1c(O)c(O)c(C(C)C)c2cc(C)c(-c3c(C)cc4c(C(C)C)c(O)c(O)c(/C=N/NCCOCCOC)c4c3O)c(O)c12 | 200 (≈ 266 µM) | 200 (≈ 266 µM) | 100 (≈ 133 µM) | 400 (≈ 533 µM) | 50 (≈ 66.6 µM) | 400 (≈ 533 µM) | 200 (≈ 266 µM) | 200 (≈ 266 µM) | 400 (≈ 533 µM) | 200 (≈ 266 µM) | 200 (≈ 266 µM) | 200 (≈ 266 µM) | 400 (≈ 533 µM) | 200 (≈ 266 µM) | 100 (≈ 133 µM) | 12 | 11 | 11 | inactive | inactive | zone of inhibition at 400 µg/disc (Staphylococcus aureus [16]): 12 mm; zone of inhibition at 400 µg/disc (Micrococcus luteus [22]): 11 mm; zone of inhibition at 400 µg/disc (Staphylococcus aureus [23]): 12 mm; zone of inhibition at 400 µg/disc (Staphylococcus aureus [24]): 12 mm; zone of inhibition at 400 µg/disc (Staphylococcus aureus [25]): 13 mm; MIC (Staphylococcus aureus [26]): 200 µg/mL (≈ 266 µM); MIC (Staphylococcus aureus [27]): 200 µg/mL (≈ 266 µM); MIC (Staphylococcus aureus [28]): 100 µg/mL (≈ 133 µM); MIC (Staphylococcus aureus [29]): 100 µg/mL (≈ 133 µM); MIC [30]: > 400 µg/mL; MIC (Bacillus subtilis [31]): 400 µg/mL (≈ 533 µM); MIC (Bacillus cereus [32]): 100 µg/mL (≈ 133 µM); MIC (Enterococcus hirae [33]): 200 µg/mL (≈ 266 µM); MIC (Micrococcus luteus [34]): 200 µg/mL (≈ 266 µM); MIC (Micrococcus luteus [35]): 200 µg/mL (≈ 266 µM); MIC (Staphylococcus aureus [36]): 100 µg/mL (≈ 133 µM); MIC (Staphylococcus aureus [37]): 100 µg/mL (≈ 133 µM); MIC (Staphylococcus aureus [38]): 400 µg/mL (≈ 533 µM); MIC (Staphylococcus aureus [39]): 400 µg/mL (≈ 533 µM); MIC (Staphylococcus aureus [40]): 400 µg/mL (≈ 533 µM)
Cc1cc2c(c(O)c1-c1c(C)cc3c(c1O)/C(=C/NCC1COCCOCCOCCOCCOCCO1)C(=O)C(O)=C3C(C)C)/C(=C/NCC1COCCOCCOCCOCCOCCO1)C(=O)C(O)=C2C(C)C (centres undefined) | 100 (≈ 93.5 µM) | 100 (≈ 93.5 µM) | 100 (≈ 93.5 µM) | 100 (≈ 93.5 µM) | 100 (≈ 93.5 µM) | 200 (≈ 187 µM) | 100 (≈ 93.5 µM) | 100 (≈ 93.5 µM) | 100 (≈ 93.5 µM) | 100 (≈ 93.5 µM) | 100 (≈ 93.5 µM) | 200 (≈ 187 µM) | 200 (≈ 187 µM) | 100 (≈ 93.5 µM) | 100 (≈ 93.5 µM) | 12 | 11 | 11 | inactive | inactive | zone of inhibition at 400 µg/disc (Micrococcus luteus [22]): 14 mm; zone of inhibition at 400 µg/disc (Staphylococcus aureus [23]): 11 mm; zone of inhibition at 400 µg/disc (Staphylococcus aureus [24]): 11 mm; zone of inhibition at 400 µg/disc (Staphylococcus aureus [25]): 11 mm; MIC (Staphylococcus aureus [26]): 100 µg/mL (≈ 93.5 µM); MIC (Staphylococcus aureus [27]): 100 µg/mL (≈ 93.5 µM); MIC (Staphylococcus aureus [28]): 100 µg/mL (≈ 93.5 µM); MIC (Staphylococcus aureus [29]): 100 µg/mL (≈ 93.5 µM); MIC [30]: > 400 µg/mL; MIC (Bacillus subtilis [31]): 200 µg/mL (≈ 187 µM); MIC (Bacillus cereus [32]): 100 µg/mL (≈ 93.5 µM); MIC (Enterococcus hirae [33]): 100 µg/mL (≈ 93.5 µM); MIC (Micrococcus luteus [34]): 100 µg/mL (≈ 93.5 µM); MIC (Micrococcus luteus [35]): 100 µg/mL (≈ 93.5 µM); MIC (Staphylococcus aureus [36]): 100 µg/mL (≈ 93.5 µM); MIC (Staphylococcus aureus [37]): 100 µg/mL (≈ 93.5 µM); MIC (Staphylococcus aureus [38]): 200 µg/mL (≈ 187 µM); MIC (Staphylococcus aureus [39]): 200 µg/mL (≈ 187 µM); MIC (Staphylococcus aureus [40]): 100 µg/mL (≈ 93.5 µM)

— ChEMBL document CHEMBL1155271, “Synthesis, crystal structures and antibacterial activity studies of aza-derivatives of phytoalexin from cotton plant--gossypol” (2009)
